Data reported in ChEMBL document CHEMBL1139129, “Bis-styrylpyridine and bis-styrylbenzene derivatives as inhibitors for Abeta fibril formation” (Bioorg Med Chem Lett, 2007).

System: HT-22
Test: Cytotoxicity against HT22 cells assessed as cell viability at 10 uM by MTT assay relative to control
Assay type: functional, Homo sapiens
Conditions: Mus musculus, read-out: Activity

Row | Compound | viability at 10 µM
1 | CNc1ccc(/C=C/c2cccc(/C=C/c3ccc(NC)c(OC)c3)c2)cc1OC [listing 1 of 2 here] | 150%
2 | COc1cc(/C=C/C(=O)CC(=O)/C=C/c2ccc(O)c(OC)c2)ccc1O [CURCUMIN] | 116%

Biological target: Amyloid-beta precursor protein (Homo sapiens, UniProt P05067)
Sequence (P05067 whole entry): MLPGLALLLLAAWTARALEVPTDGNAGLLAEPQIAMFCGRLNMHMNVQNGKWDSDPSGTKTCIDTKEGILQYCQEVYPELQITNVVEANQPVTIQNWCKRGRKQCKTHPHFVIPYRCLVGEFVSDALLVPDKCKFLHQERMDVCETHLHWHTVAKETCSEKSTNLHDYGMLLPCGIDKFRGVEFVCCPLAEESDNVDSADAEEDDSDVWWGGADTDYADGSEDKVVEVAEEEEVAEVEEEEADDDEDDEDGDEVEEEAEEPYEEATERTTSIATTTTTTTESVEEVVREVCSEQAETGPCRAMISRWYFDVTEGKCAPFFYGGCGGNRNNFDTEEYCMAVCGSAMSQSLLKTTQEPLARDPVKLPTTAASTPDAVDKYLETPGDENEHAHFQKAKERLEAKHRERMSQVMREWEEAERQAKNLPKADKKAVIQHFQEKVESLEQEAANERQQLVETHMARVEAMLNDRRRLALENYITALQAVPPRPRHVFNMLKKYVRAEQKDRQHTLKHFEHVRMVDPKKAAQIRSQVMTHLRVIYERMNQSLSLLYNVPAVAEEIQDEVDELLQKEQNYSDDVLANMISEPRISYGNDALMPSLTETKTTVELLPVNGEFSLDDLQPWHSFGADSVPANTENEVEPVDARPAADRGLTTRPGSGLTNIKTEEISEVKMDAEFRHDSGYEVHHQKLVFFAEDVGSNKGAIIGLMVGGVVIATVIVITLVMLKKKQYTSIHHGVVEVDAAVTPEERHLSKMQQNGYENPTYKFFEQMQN
Test: Inhibition of amyloid beta 42 fibril formation by thioflavin T assay
Conditions: not given

Row | IC50 | Compound
3 | 0.8 µM | COc1cc(/C=C/c2cccc(/C=C/c3ccc(O)c(OC)c3)n2)ccc1O
4 | > 20 µM | CN(C)c1ccc(/C=C/c2cc(Br)cc(/C=C/c3ccc(N(C)C)cc3)c2)cc1
5 | 0.6 µM | COc1cc(/C=C/c2cccc(/C=C/c3ccc(N)c(OC)c3)c2)ccc1N
6 | 1.4 µM | COc1cc(/C=C/c2cc(C)cc(/C=C/c3ccc(O)c(OC)c3)n2)ccc1O
7 | 1.1 µM | COc1cc(/C=C/c2cc(Br)cc(/C=C/c3ccc(O)c(OC)c3)n2)ccc1O
8 | 2.7 µM | CN(C)c1cc(/C=C/c2cccc(/C=C/c3ccc(O)c(N(C)C)c3)c2)ccc1O
9 | 0.6 µM | COc1ccc(/C=C/c2cccc(/C=C/c3ccc(OC)c(N)c3)n2)cc1N
10 | 0.7 µM | COc1cc(/C=C/c2cccc(/C=C/c3ccc(N)c(OC)c3)n2)ccc1N
11 | 0.9 µM | CN(C)c1ccc(/C=C/c2cccc(/C=C/c3ccc(N(C)C)c(O)c3)n2)cc1O
12 | 1.1 µM | COc1ccc(/C=C/c2cccc(/C=C/c3ccc(OC)c(N(C)C)c3)c2)cc1N(C)C
13 | 1.7 µM | COc1cc(/C=C/c2ccc(O)c(OC)c2)nc(/C=C/c2ccc(O)c(OC)c2)c1
14 | 0.8 µM | COc1cc(/C=C/c2cccc(/C=C/c3ccc(N(C)C)c(OC)c3)n2)ccc1N(C)C
15 | 2.3 µM | CN(C)c1cc(/C=C/c2cccc(/C=C/c3ccc(O)c(N(C)C)c3)n2)ccc1O
16 | 1.1 µM | CNc1cc(/C=C/c2cccc(/C=C/c3ccc(OC)c(NC)c3)n2)ccc1OC

Further lines, the compound ahead of its results:

Row | Compound | IC50
17 | CNc1cc(/C=C/c2cccc(/C=C/c3ccc(O)c(NC)c3)n2)ccc1O | 0.5 µM
18 | CNc1ccc(/C=C/c2cccc(/C=C/c3ccc(NC)c(OC)c3)c2)cc1OC [listing 2 of 2 here] | 0.6 µM
19 | COc1ccc(/C=C/c2cccc(/C=C/c3ccc(OC)c(N)c3)c2)cc1N | 0.3 µM
20 | COc1cc(/C=C/c2cc(Br)cc(/C=C/c3ccc(O)c(OC)c3)c2)ccc1O | 0.1 µM
21 | CN(C)c1ccc(/C=C/c2cccc(/C=C/c3ccc(N(C)C)c(O)c3)c2)cc1O | 0.7 µM
22 | CNc1ccc(/C=C/c2cccc(/C=C/c3ccc(NC)c(O)c3)n2)cc1O | 0.9 µM
23 | COc1cc(/C=C/c2cccc(/C=C/c3ccc(N(C)C)c(OC)c3)c2)ccc1N(C)C | 1 µM
24 | COc1cc(/C=C/c2cc(Br)cc(/C=C/c3ccc(N)c(OC)c3)c2)ccc1N | 1.8 µM
25 | CN(C)c1ccc2cc3ccc(N(C)C)cc3nc2c1 [ACRIDINE ORANGE] | 0.6 µM
26 | COc1cc(/C=C/c2cc(Br)cc(/C=C/c3ccc(N)c(OC)c3)n2)ccc1N | 1.1 µM
27 | CNc1cc(/C=C/c2cccc(/C=C/c3ccc(OC)c(NC)c3)c2)ccc1OC | 1.3 µM
28 | COc1cc(/C=C/c2cccc(/C=C/c3ccc(N4CCCC4)c(OC)c3)c2)ccc1N1CCCC1 | > 20 µM
29 | COc1ccc(/C=C/c2cccc(/C=C/c3ccc(OC)c(N(C)C)c3)n2)cc1N(C)C | 0.9 µM
30 | O=C(O)c1cc(/C=C/c2ccc(/C=C/c3ccc(O)c(C(=O)O)c3)c(I)c2)ccc1O | 8 µM
31 | CN(C)c1ccc(/C=C/c2cccc(/C=C/c3ccc(N(C)C)cc3)c2)cc1 | > 20 µM
32 | COc1cc(/C=C/c2cc(N(C)C)cc(/C=C/c3ccc(O)c(OC)c3)n2)ccc1O | 1.9 µM
33 | COc1cc(/C=C/c2cc(Cl)cc(/C=C/c3ccc(O)c(OC)c3)n2)ccc1O | 1.1 µM
34 | CN(C)c1ccc(/C=C/c2cc(I)cc(/C=C/c3ccc(N(C)C)cc3)c2)cc1 | > 20 µM
35 | CNc1ccc(/C=C/c2cccc(/C=C/c3ccc(NC)c(OC)c3)n2)cc1OC | 0.5 µM
36 | COc1ccc(/C=C/c2cc(Br)cc(/C=C/c3ccc(OC)c(OC)c3)c2)cc1OC | 20 µM
